These results are taken from ChEMBL document CHEMBL3507680, “University of Dundee, Gates Library screen for HepG2 cell viability”.

The structures appear in SMILES notation.

This data set can be described thus: Human HepG2 cell viability assay in 384 well format. Format: toxicity, cell-based. Also on record: dose 125 nL, time 70.5 hour; cytotoxicity at 70.5 h: concentration not given beside the values. Particulars: HepG2 cells, read-out: Inhibition.
`C=C(C)CSc1nnc(CCNC(=O)OC(C)(C)C)o1`: the cytotoxicity at 70.5 h was -12.3%.

As to `CC(C)(C)CC(=O)N1[C@@H](c2ccco2)[C@@H](CO)C[C@]12CCCCNC2=O`, the cytotoxicity at 70.5 h was -5.67%.

Consider `CCOC(=O)CN1C(=O)CN(S(C)(=O)=O)CCC(OC)c2ccccc21` (stereo not drawn), for which the cytotoxicity at 70.5 h is -8.31%.

As to `CNC(=O)CN1C(=O)CN(C(=O)COC)CCC(OC)c2ccccc21` (stereo not drawn), the cytotoxicity at 70.5 h stood at 15.1%.

For `OCC1N(Cc2ccc(F)cc2)[C@H]2CC[C@]1(O)CC2` (stereo partly drawn), the cytotoxicity at 70.5 h is -7.04%.

With `O=C(c1ccco1)N1C(CO)[C@]2(O)CC[C@H]1CC2` (stereo partly drawn), the cytotoxicity at 70.5 h is -3.21%.

Consider `O=C(Nc1ccccc1)N1C(CO)[C@]2(O)CC[C@H]1CC2` (stereo partly drawn), for which the cytotoxicity at 70.5 h worked out at 15%.

For the molecule `COCC1N(C(=O)c2ccco2)[C@H]2CC[C@]1(O)CC2` (stereo partly drawn), the cytotoxicity at 70.5 h is -2.24%.

As to `COCC1N(C(=O)Nc2ccccc2)[C@H]2CC[C@]1(O)CC2` (stereo partly drawn), the cytotoxicity at 70.5 h was -7.67%.

`COCC1N(S(=O)(=O)c2cn(C)cn2)[C@H]2CC[C@]1(O)CC2` (stereo partly drawn): the cytotoxicity at 70.5 h was -7.28%.

On to `CCOC(=O)C1CC2(CCCCC2)N2CCC(=O)N12` (stereo not drawn), for which the cytotoxicity at 70.5 h is -4.11%.

As for `O[C@]12CC[C@H](CC1)N(Cc1ccc(F)cc1)C2CN1CCOCC1` (stereo partly drawn), the cytotoxicity at 70.5 h was -7.54%.

Take `O=S(=O)(c1ccccc1)N1C(CN2CCOCC2)[C@]2(O)CC[C@H]1CC2` (stereo partly drawn): the cytotoxicity at 70.5 h came to 16.5%.

Take `O=C1CCNc2ncc(-c3ccc(Cl)cc3)cc2CN1C1CC1`: the cytotoxicity at 70.5 h was -8.11%.

On to `CCOC(=O)[C@@H]1[C@@H](c2ccccc2)CN2CCN(C(C)=O)C[C@H]12`, for which the cytotoxicity at 70.5 h is -4.08%.

With `CCOC(=O)[C@@H]1[C@@H](c2ccccc2)CN2CCN(C(=O)C3CC3)C[C@H]12`, the cytotoxicity at 70.5 h amounted to 16.5%.

With `CO[C@@H]1CN(C)S(=O)(=O)[C@@]12CCN(Cc1ccccc1)C2`, the cytotoxicity at 70.5 h is -7.27%.

For `CO[C@@H]1CN(c2ccccc2)S(=O)(=O)[C@@]12CCN(C)C2`, the cytotoxicity at 70.5 h is -7.99%.

In the case of `COC(=O)N1CC[C@@]2(C1)[C@H](OC)CN(c1ccccc1)S2(=O)=O`, the cytotoxicity at 70.5 h was -11.4%.

Consider `CO[C@@H]1CN(c2ccccc2)S(=O)(=O)[C@@]12CCN(S(C)(=O)=O)C2`, for which the cytotoxicity at 70.5 h turned out to be 15.4%.

For `COCC(O)CN1CCC(=O)N(Cc2ccccc2)Cc2ccccc21` (stereo not drawn), the cytotoxicity at 70.5 h was -5.42%.

Turning to `COCC(O)CN1CCC(=O)N(CC(=O)C(C)(C)C)Cc2ccccc21` (stereo not drawn), the cytotoxicity at 70.5 h was -4.8%.

Take `COCCN1CC(O)CN(C(=O)c2cccc(C(F)(F)F)c2)CC1=O` (stereo not drawn): the cytotoxicity at 70.5 h was -0.767%.

With `COc1ccc(CN2CC(O)CN(C(=O)c3ccccc3)CC2=O)cc1` (stereo not drawn), the cytotoxicity at 70.5 h was determined as 7.16%.

As to `COc1ccc(CN2CC(O)CN(C(=O)C3CCC3)CC2=O)cc1` (stereo not drawn), the cytotoxicity at 70.5 h is -0.603%.

`Cc1ccc(C(=O)N2CC(=O)N(Cc3cccs3)CC(O)C2)cc1` (stereo not drawn): the cytotoxicity at 70.5 h is -0.413%.

Turning to `CSc1ccc(C(=O)N2CC(=O)N(Cc3ccccc3)CC(O)C2)cc1` (stereo not drawn), the cytotoxicity at 70.5 h is 0.216%.

In the case of `COc1ccc(C(=O)N2CC(=O)N(C3CCC3)CC(O)C2)c(OC)c1` (stereo not drawn), the cytotoxicity at 70.5 h was -1.09%.

Regarding `O=C(c1cccc(C(F)(F)F)c1)N1CC(=O)N(C2CCC2)CC(O)C1` (stereo not drawn), the cytotoxicity at 70.5 h was -7.16%.

Turning to `COc1ccc(C(=O)N2CC(=O)N(CC3CC3)CC(O)C2)cc1` (stereo not drawn), the cytotoxicity at 70.5 h was -4%.

With `COc1ccccc1C(=O)N1CC(=O)N(CC2CC2)CC(O)C1` (stereo not drawn), the cytotoxicity at 70.5 h was -0.352%.

As to `CCOC(=O)N1CCC(OC)c2ccccc2N(CC(=O)NC)C(=O)C1` (stereo not drawn), the cytotoxicity at 70.5 h was -3.27%.

Turning to `COCCOC(=O)N1CCN2C[C@@H](CO)[C@H](c3ccccc3)[C@H]2C1`, the cytotoxicity at 70.5 h is 0.912%.

In the case of `COC(=O)N1CCN2C[C@H](CO)[C@@H](c3ccccc3)[C@H]2C1`, the cytotoxicity at 70.5 h is -4.89%.

As for `COc1ccc2c3c1CN(C(C)=O)CC3=CC(C)(C)CO2`, the cytotoxicity at 70.5 h stood at 0.846%.

As to `CCNC(=O)N1CC2=CC(C)(C)COc3ccc(OC)c(c32)C1`, the cytotoxicity at 70.5 h was -6.22%.

As for `CC(C)CC(=O)N1CC(=O)N(CCc2ccccc2)CC(O)C1` (stereo not drawn), the cytotoxicity at 70.5 h came out at 24%.

As for `CCS(=O)(=O)N1CC(=O)N(Cc2ccccc2OC)CC(O)C1` (stereo not drawn), the cytotoxicity at 70.5 h came out at 17.6%.

Take `CCCS(=O)(=O)N1CC(=O)N(Cc2cccc(OC)c2OC)CC(O)C1` (stereo not drawn): the cytotoxicity at 70.5 h came out at 9.04%.

`COc1cccc(CN2CC(O)CN(S(C)(=O)=O)CC2=O)c1OC` (stereo not drawn): the cytotoxicity at 70.5 h turned out to be 4.13%.

In the case of `CCOC(=O)N1CC(=O)N(Cc2cccc(OC)c2OC)CC(O)C1` (stereo not drawn), the cytotoxicity at 70.5 h was -5.06%.

As for `COC1CN(C(=O)OCC(C)C)CCC(=O)N(C)c2ccccc21` (stereo not drawn), the cytotoxicity at 70.5 h is -4.55%.

Consider `COC1CN(C(=O)Nc2ccccc2)CCC(=O)N(C)c2ccccc21` (stereo not drawn), for which the cytotoxicity at 70.5 h was -0.759%.

With `COC1CN(C(=O)Cc2cccs2)CCC(=O)N(C)c2ccccc21` (stereo not drawn), the cytotoxicity at 70.5 h is 2.17%.

On to `CC(=O)N1CCC(=O)N(C2CCCC2)Cc2ccccc21`, for which the cytotoxicity at 70.5 h came out at 7.97%.

For `COCC(=O)N1CCC(=O)N(C2CCCC2)Cc2ccccc21`, the cytotoxicity at 70.5 h came to 6.82%.

Take `Cc1nc2ccn(C(C)C)c(=O)c2cc1C(=O)O`: the cytotoxicity at 70.5 h is -24.7%.

As to `CC(C)Cc1cc(C(=O)O)nc2[nH]c(=O)[nH]c(=O)c12`, the cytotoxicity at 70.5 h was -14.3%.

As to `O=C(O)CCn1ccc(=O)c2ccccc21`, the cytotoxicity at 70.5 h is -3.76%.

As to `O=C(O)CCC(=O)N1CCC(c2noc3cc(F)ccc23)CC1`, the cytotoxicity at 70.5 h was -10.8%.

In the case of `O=C(O)Cn1ccc(=O)c2cc(F)ccc21`, the cytotoxicity at 70.5 h was -10.1%.

On to `Cc1nc(Oc2ccccc2F)sc1C(=O)O`, for which the cytotoxicity at 70.5 h was -11.4%.

For `Cc1cccc(S(=O)(=O)N2C[C@H]3C[C@H](C(=O)NC4CCC4)[C@@H](C2)O3)c1`, the cytotoxicity at 70.5 h is -10.5%.

On to `CC(C)NC(=O)C1CCC2(CCN(c3ncccn3)CC2)CO1` (stereo not drawn), for which the cytotoxicity at 70.5 h was -9.99%.

On to `CCC(C)N1CCc2c(C(=O)N(C)Cc3ccccn3)nn(C)c2C1` (stereo not drawn), for which the cytotoxicity at 70.5 h is -7.34%.

As to `Cc1cccc(S(=O)(=O)N2C[C@H]3C[C@H](C(=O)NCC4CC4)[C@@H](C2)O3)c1`, the cytotoxicity at 70.5 h is -0.444%.

Regarding `Cc1cccc(S(=O)(=O)N2C[C@H]3C[C@H](C(=O)N(C)C)[C@@H](C2)O3)c1`, the cytotoxicity at 70.5 h was 1.15%.

For `CC(=O)NCc1noc2c1CN(Cc1cnn(C)c1)CC2`, the cytotoxicity at 70.5 h turned out to be 2.69%.

Turning to `COCC(=O)N1CCC2(CC1)CC(OC)CO2` (stereo not drawn), the cytotoxicity at 70.5 h was -7.5%.

`CCNC(=O)c1ccc2ccc(N(CC)CC)n2c1`: the cytotoxicity at 70.5 h is -8.54%.

As to `Cn1cc(-c2cnc3n2CCC32CCN(S(C)(=O)=O)CC2)cn1`, the cytotoxicity at 70.5 h was -0.823%.

With `CCC(CC)NC(=O)c1ccc2c(c1)C(c1nc[nH]n1)CN2S(C)(=O)=O` (stereo not drawn), the cytotoxicity at 70.5 h was -7.51%.

For `CCN(CC)[C@@H]1CN(S(=O)(=O)c2cn(C)cn2)[C@@H]2CCCO[C@H]12`, the cytotoxicity at 70.5 h was determined as 26.4%.

Consider `COCC(=O)N1CCC2(CC1)CC(N1CCOCC1)c1ccc(C)cc12` (stereo not drawn), for which the cytotoxicity at 70.5 h is 0.692%.

`c1ccc(N2CCc3ncnc(C4CC4)c3CC2)nc1`: the cytotoxicity at 70.5 h was -12.5%.

Take `CS(=O)(=O)N1CC(c2nc[nH]n2)c2cc(C(=O)NC3CCCC3)ccc21` (stereo not drawn): the cytotoxicity at 70.5 h was -20.4%.

For `CCc1nc(-c2noc3ccc(C(=O)N(C)CCOC)cc23)co1`, the cytotoxicity at 70.5 h was -12.2%.

With `O=C(C1CC=CC1)N1CCC2(CC1)CNCCO2`, the cytotoxicity at 70.5 h was -5.99%.

On to `CC(C)NC(=O)[C@@H]1CC[C@@H]2[C@@H](CCN2Cc2ccc3ccccc3n2)O1`, for which the cytotoxicity at 70.5 h is -8.11%.

On to `CCC(C)N1Cc2c(C(=O)N3CCCC3)nn(C)c2C1` (stereo not drawn), for which the cytotoxicity at 70.5 h is -2.34%.

Turning to `Cc1ccc(NC2COC3(CCN(CC(C)C)CC3)C2)nn1` (stereo not drawn), the cytotoxicity at 70.5 h was determined as 27.8%.

In the case of `CN1CCc2ncc(CNc3cc(N(C)C)ncn3)n2CC1`, the cytotoxicity at 70.5 h is -11.9%.

Consider `CCS(=O)(=O)N1CCC2(CCC(N3CCCC3)c3ccccc32)CC1` (stereo not drawn), for which the cytotoxicity at 70.5 h was -10.6%.

Regarding `OCCOCc1nnn2c1CN(c1ncccn1)CCC2`, the cytotoxicity at 70.5 h came out at 8.18%.

Regarding `CC(C)CCN1Cc2c(C(=O)N3CCCC3)nn(C)c2C1`, the cytotoxicity at 70.5 h was 15%.

On to `CCc1cnc(N2C[C@@H](NC(=O)c3cscn3)[C@H]3COC[C@H]32)nc1`, for which the cytotoxicity at 70.5 h was -11.1%.

Take `O=C(c1ccccc1)N1CCS(=O)(=O)[C@@H]2CCNCC[C@@H]21`: the cytotoxicity at 70.5 h came to 3.07%.

Turning to `CN1CCC(c2nnc3ccc(C(=O)N4CCCCC4)cn23)C1` (stereo not drawn), the cytotoxicity at 70.5 h was -9.66%.

As for `Fc1cnc(N2CCCn3c(nnc3Cn3cccc3)C2)nc1`, the cytotoxicity at 70.5 h stood at 27.5%.

`CC(C)CO[C@H]1CN(S(=O)(=O)c2cn(C)cn2)[C@@H]2CCCO[C@H]12`: the cytotoxicity at 70.5 h amounted to 18%.

As for `O=C(c1cccc(Cl)c1)N1CCCC2(CCCNC2)C1` (stereo not drawn), the cytotoxicity at 70.5 h was -1.15%.

For the molecule `CC(C)n1nc(CNc2ncccn2)c2c1CN(C1CCOCC1)CC2`, the cytotoxicity at 70.5 h is -17.3%.

With `Cc1cccc(N2CCc3ncnc(C4CC4)c3CC2)n1`, the cytotoxicity at 70.5 h was -10.3%.

`O=S(=O)(NC[C@]12COC[C@H]1CN(c1ncc(F)cn1)C2)C1CC1`: the cytotoxicity at 70.5 h came out at 19.1%.

`CC(=O)NCc1noc2c1CN(CCN1CCCC1)CC2`: the cytotoxicity at 70.5 h was -8.27%.

Take `Cc1cncc(C(=O)N2CC[C@@H]3[C@H]2CCC(=O)N3CCN(C)C)c1`: the cytotoxicity at 70.5 h stood at 2.21%.

Regarding `CN(C)CCN1CCO[C@H]2CCN(C(=O)c3cccs3)CC[C@@H]21`, the cytotoxicity at 70.5 h came out at 32.1%.

Regarding `Fc1cnc(N2CCCn3c(CN4CCOCC4)nnc3C2)nc1`, the cytotoxicity at 70.5 h came out at 25.5%.

`Cn1nc(CN2CCOCC2)c2c1CN(Cc1ccsc1)C2`: the cytotoxicity at 70.5 h was -5.85%.

Regarding `CN(Cc1ccccn1)C(=O)c1nn(C)c2c1CCN(CC1CC1)C2`, the cytotoxicity at 70.5 h is -1.96%.

As to `CN1CCN(C2COC3(CCN(CC4CC4)CC3)C2)CC1` (stereo not drawn), the cytotoxicity at 70.5 h was determined as 0.151%.

Take `Cc1cnc(N2C[C@H]3C[C@H](C(=O)N4CCN(C)CC4)N(C)[C@H]3C2)nc1`: the cytotoxicity at 70.5 h is -9.1%.

For the molecule `Fc1cccc(O[C@@H]2C[C@H]3CN(Cc4ccncc4)CCN3C2)c1`, the cytotoxicity at 70.5 h is -15.6%.
